System: 186277-243-T-J2-PDC complex spheroid growth
Test: Anticancer human tumor 186277-243-T-J2-PDC patient-derived colon adenocarcinoma cell line growth inhibition [AhR]
Conditions: for IC50: curve of first compound; for viability, T/C: stronger effect = lower value
Method in brief: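 Agents were dosed in half-log steps down from roughly clinical Cmax, or from 10 microM where Cmax was unknown, alone and with AhR antagonists. Read-out: percent test/control growth of tumor spheroids containing HUVEC and MSC stromal cells.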

[1] = second compound 0.1 µM, first compound 0.0316 µM
[2] = second compound 0.1 µM, first compound 0.1 µM
[3] = second compound 0.1 µM, first compound 0.316 µM
[4] = second compound 0.1 µM, first compound 1 µM
[5] = second compound 0.1 µM, first compound 3.16 µM
[6] = second compound 0.1 µM, first compound 10 µM
[7] = second compound 0.316 µM, first compound 0.0316 µM
[8] = second compound 0.316 µM, first compound 0.1 µM
[9] = second compound 0.316 µM, first compound 0.316 µM
[10] = second compound 0.316 µM, first compound 1 µM
[11] = second compound 0.316 µM, first compound 3.16 µM
[12] = second compound 0.316 µM, first compound 10 µM
[13] = second compound 1 µM, first compound 0.0316 µM
[14] = second compound 1 µM, first compound 0.1 µM
[15] = second compound 1 µM, first compound 0.316 µM
[16] = second compound 1 µM, first compound 1 µM
[17] = second compound 1 µM, first compound 3.16 µM
[18] = second compound 1 µM, first compound 10 µM
[19] = second compound 3.16 µM, first compound 0.0316 µM
[20] = second compound 3.16 µM, first compound 0.1 µM
[21] = second compound 3.16 µM, first compound 0.316 µM
[22] = second compound 3.16 µM, first compound 1 µM
[23] = second compound 3.16 µM, first compound 3.16 µM
[24] = second compound 3.16 µM, first compound 10 µM
[25] = second compound 10 µM, first compound 0.0316 µM
[26] = second compound 10 µM, first compound 0.1 µM
[27] = second compound 10 µM, first compound 0.316 µM
[28] = second compound 10 µM, first compound 1 µM
[29] = second compound 10 µM, first compound 3.16 µM
[30] = second compound 10 µM, first compound 10 µM
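Also: spheroids exposed to compounds for seven days before the viability read.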
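For viability, T/C in this document: luminescent signal used as a stand-in for viable cell amount; 100% = DMSO vehicle control wells.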

Work on `NS(=O)(=O)OCC1CC(n2ccc3c(NC4CCc5ccccc54)ncnc32)CC1O` (stereo unspecified) + Cc1cncc(-c2nc(NCCc3c[nH]c4ccccc34)c3ncn(C(C)C)c3n2)c1 yielded an IC50 (second compound 0.1 µM) of 693 nM, an IC50 (second compound 0.316 µM) of 563 nM and an IC50 (second compound 1 µM) of 492 nM. The IC50 (second compound 3.16 µM) was 365 nM, the IC50 (second compound 10 µM) was 41 nM and the viability, T/C [1] was 114%. It also gave a viability, T/C [2] of 93.1%, a viability, T/C [3] of 80.4% and a viability, T/C [4] of 35.6%. The viability, T/C [5] was 13.2%, the viability, T/C [6] was 3.87% and the viability, T/C [7] was 104%. For the same molecule, the viability, T/C [8] was 96.2%, the viability, T/C [9] was 71.4% and the viability, T/C [10] was 28.6%. The viability, T/C [11] was 9.15%, the viability, T/C [12] was 3.24% and the viability, T/C [13] was 96%. The viability, T/C [14] was 89.8%, the viability, T/C [15] was 67.6% and the viability, T/C [16] was 22.2%. It also gave a viability, T/C [17] of 5.08%, a viability, T/C [18] of 2.62% and a viability, T/C [19] of 91.8%. For the same molecule, the viability, T/C [20] was 86.8%, the viability, T/C [21] was 52.2% and the viability, T/C [22] was 21.3%. The viability, T/C [23] was 5%, the viability, T/C [24] was 2.12% and the viability, T/C [25] was 57.8%. For the same molecule, the viability, T/C [26] was 24.4%, the viability, T/C [27] was 9.9% and the viability, T/C [28] was 7.65%. The viability, T/C [29] was 2.02% and the viability, T/C [30] was 1.58%.

With `COc1cccc2c1C(=O)c1c(O)c3c(c(O)c1C2=O)CC(O)(C(=O)CO)CC3OC1CC(N)C(O)C(C)O1` (stereo unspecified) + Cc1ccccc1N=Nc1ccc(NC(=O)c2ccnn2C)c(C)c1 the IC50 (second compound 0.1 µM) was 456 nM, the IC50 (second compound 0.316 µM) was 446 nM and the IC50 (second compound 1 µM) was 487 nM. It also gave an IC50 (second compound 3.16 µM) of 463 nM, an IC50 (second compound 10 µM) of 440 nM and a viability, T/C [1] of 158%. For the same molecule, the viability, T/C [2] was 147%, the viability, T/C [3] was 71% and the viability, T/C [4] was 4.6%. It also gave a viability, T/C [5] of 0.4%, a viability, T/C [6] of 0.61% and a viability, T/C [7] of 161%. It also gave a viability, T/C [8] of 138%, a viability, T/C [9] of 70% and a viability, T/C [10] of 4.18%. For the same molecule, the viability, T/C [11] was 0.3%, the viability, T/C [12] was 1.25% and the viability, T/C [13] was 161%. The viability, T/C [14] was 136%, the viability, T/C [15] was 77.1% and the viability, T/C [16] was 4.8%. For the same molecule, the viability, T/C [17] was 0.42%, the viability, T/C [18] was 0.91% and the viability, T/C [19] was 152%. For the same molecule, the viability, T/C [20] was 133%, the viability, T/C [21] was 72.9% and the viability, T/C [22] was 3.91%. For the same molecule, the viability, T/C [23] was 0.08%, the viability, T/C [24] was 1.27% and the viability, T/C [25] was 131%. For the same molecule, the viability, T/C [26] was 120%, the viability, T/C [27] was 68.9% and the viability, T/C [28] was 2.85%. The viability, T/C [29] was 0.25% and the viability, T/C [30] was 0.52%.

`CCc1c2c(nc3ccc(O)cc13)-c1cc3c(c(=O)n1C2)COC(=O)[C@]3(O)CC` + CC(CO)NC(=O)c1cc(-c2ccc(Cl)cc2)nn(-c2cnn(C)c2)c1=O was tested, and the IC50 (second compound 0.1 µM) was < 0.949 nM, the IC50 (second compound 0.316 µM) was < 0.949 nM and the IC50 (second compound 1 µM) was < 0.949 nM. The IC50 (second compound 3.16 µM) was < 0.949 nM, the IC50 (second compound 10 µM) was < 0.949 nM and the viability, T/C (second compound 0.1 µM, first compound 0.000949 µM) was 38.7%. The viability, T/C (second compound 0.1 µM, first compound 0.003 µM) was 30.1%, the viability, T/C (second compound 0.1 µM, first compound 0.00949 µM) was 22.8% and the viability, T/C (second compound 0.1 µM, first compound 0.03 µM) was 16.7%. The viability, T/C (second compound 0.1 µM, first compound 0.0949 µM) was 10.3%, the viability, T/C (second compound 0.1 µM, first compound 0.3 µM) was 6.69% and the viability, T/C (second compound 0.316 µM, first compound 0.000949 µM) was 38.5%. It also gave a viability, T/C (second compound 0.316 µM, first compound 0.003 µM) of 27.1%, a viability, T/C (second compound 0.316 µM, first compound 0.00949 µM) of 21.9% and a viability, T/C (second compound 0.316 µM, first compound 0.03 µM) of 15.6%. It also gave a viability, T/C (second compound 0.316 µM, first compound 0.0949 µM) of 8.35%, a viability, T/C (second compound 0.316 µM, first compound 0.3 µM) of 5.97% and a viability, T/C (second compound 1 µM, first compound 0.000949 µM) of 37.8%. For the same molecule, the viability, T/C (second compound 1 µM, first compound 0.003 µM) was 28.9%, the viability, T/C (second compound 1 µM, first compound 0.00949 µM) was 24.8% and the viability, T/C (second compound 1 µM, first compound 0.03 µM) was 16.4%. For the same molecule, the viability, T/C (second compound 1 µM, first compound 0.0949 µM) was 8.38%, the viability, T/C (second compound 1 µM, first compound 0.3 µM) was 6.06% and the viability, T/C (second compound 3.16 µM, first compound 0.000949 µM) was 31.3%. For the same molecule, the viability, T/C (second compound 3.16 µM, first compound 0.003 µM) was 25.4%, the viability, T/C (second compound 3.16 µM, first compound 0.00949 µM) was 24.5% and the viability, T/C (second compound 3.16 µM, first compound 0.03 µM) was 15.3%. It also gave a viability, T/C (second compound 3.16 µM, first compound 0.0949 µM) of 9.33%, a viability, T/C (second compound 3.16 µM, first compound 0.3 µM) of 6.42% and a viability, T/C (second compound 10 µM, first compound 0.000949 µM) of 27.5%. It also gave a viability, T/C (second compound 10 µM, first compound 0.003 µM) of 25.6%, a viability, T/C (second compound 10 µM, first compound 0.00949 µM) of 22.6% and a viability, T/C (second compound 10 µM, first compound 0.03 µM) of 15.4%. For the same molecule, the viability, T/C (second compound 10 µM, first compound 0.0949 µM) was 8.39% and the viability, T/C (second compound 10 µM, first compound 0.3 µM) was 6.77%.

In the case of `Cc1cncc(-c2nc(NCCc3c[nH]c4ccccc34)c3ncn(C(C)C)c3n2)c1`, the viability, T/C (compound 0.316 µM) is reported as 97.7% [middle of 20 runs].

For `COc1ccc([C@@H](O)c2cc(-c3ncnc4cc(N5CCOCC5)ccc34)c(F)cc2Cl)nn1` + Cc1cncc(-c2nc(NCCc3c[nH]c4ccccc34)c3ncn(C(C)C)c3n2)c1, the IC50 (second compound 0.1 µM) was > 10000 nM, the IC50 (second compound 0.316 µM) was > 10000 nM and the IC50 (second compound 1 µM) was > 10000 nM. The IC50 (second compound 3.16 µM) was > 10000 nM, the IC50 (second compound 10 µM) was < 31.6 nM and the viability, T/C [1] was 103%. For the same molecule, the viability, T/C [2] was 102%, the viability, T/C [3] was 104% and the viability, T/C [4] was 116%. The viability, T/C [5] was 94.2%, the viability, T/C [6] was 66.2% and the viability, T/C [7] was 109%. The viability, T/C [8] was 102%, the viability, T/C [9] was 98.3% and the viability, T/C [10] was 104%. It also gave a viability, T/C [11] of 114%, a viability, T/C [12] of 64.4% and a viability, T/C [13] of 103%. It also gave a viability, T/C [14] of 103%, a viability, T/C [15] of 113% and a viability, T/C [16] of 113%. The viability, T/C [17] was 99.4%, the viability, T/C [18] was 68.7% and the viability, T/C [19] was 94%. For the same molecule, the viability, T/C [20] was 107%, the viability, T/C [21] was 115% and the viability, T/C [22] was 106%. The viability, T/C [23] was 101%, the viability, T/C [24] was 55.7% and the viability, T/C [25] was 23.3%. The viability, T/C [26] was 21.7%, the viability, T/C [27] was 20.6% and the viability, T/C [28] was 26%. For the same molecule, the viability, T/C [29] was 16.6% and the viability, T/C [30] was 13.2%.

Reference: PubChem BioAssay AID1918991 (Molecular Pharmacology Branch, DTP, NCI, 2023)
